# Key:
# [1] = target: His-tagged human recombinant kinase full-length Akt1 (Homo sapiens (Human), UniProt P31749); assay: Akt1 kinase assay (Akt1 TR-FRET assay); type: biochemical; conditions: 10 μM ATP, 60 min at 22° C., read-out: Akt1 median IC50
# [2] = target: His-tagged human recombinant kinase full-length Akt2 (Homo sapiens (Human), UniProt P31751); assay: Akt2 kinase assay (Akt2 TR-FRET assay); type: biochemical; conditions: 10 μM ATP, 60 min at 22° C., read-out: Akt2 median IC50
# Source text: Akt2 inhibitory activity of compounds of the present invention was quantified employing the Akt2 TR-FRET assay as described in the following paragraphs.
# His-tagged human recombinant kinase full-length Akt2 expressed in insect cells and activated by PDK1 was purchased form Invitrogen (part number PV 3975). As substrate for the kinase reaction the biotinylated peptide biotin-Ahx-[sequence] (C-terminus in amide form) was used which can be purchased e.g. from the company Biosynthan GmbH (Berlin-Buch, Germany). For the assay 50 nl of a 100 fold concentrated solution of the test compound in DMSO was pipetted into a black low volume 384 well microtiter plate (Greiner Bio-One, Frickenhausen, Germany), 2 μl of a solution of Akt2 in assay buffer [50 mM TRIS/HCl pH 7.5, 5 mM MgCl2, 1 mM dithiothreitol, 0.02% (v/v) Triton X-100 (Sigma)] were added and the mixture was incubated for 15 min at 22° C. to allow pre-binding of the test compounds to the enzyme before the start of the kinase reaction. Then the kinase reaction was started by the addition of 3 μl of a solution of adenosine-tri-phosphate (ATP, 16.7 μM=>final conc. in the 5 μl assay volume is 10 μM) and substrate (1.67 μM=>final conc. in the 5 μl assay volume is 1 μM) in assay buffer and the resulting mixture was incubated for a reaction time of 60 min at 22° C. The concentration of Akt2 in the assay was adjusted depending of the activity of the enzyme lot and was chosen appropriate to have the assay in the linear range, typical enzyme concentrations were in the range of about 0.2 ng/μl (final conc. in the 5 μl assay volume). The reaction was stopped by the addition of 5 μl of a solution of HTRF detection reagents (200 nM streptavidine-XL665 [Cisbio] and 1.5 nM anti-phosho-Serine antibody [Millipore, cat. #35-001] and 0.75 nM LANCE Eu-W 1024 labeled anti-mouse IgG antibody [Perkin Elmer]) in an aqueous EDTA-solution (100 mM EDTA, 0.1% (w/v) bovine serum albumin in 50 mM HEPES/NaOH pH 7.5). The resulting mixture was incubated 1 h at 22° C. to allow the binding of the biotinylated phosphorylated peptide to the streptavidine-XL665 and the antibodies. Subsequently the amount of phosphorylated substrate was evaluated by measurement of the resonance energy transfer from the anti-mouse-IgG-Eu-Chelate to the streptavidine-XL665. Therefore, the fluorescence emissions at 620 nm and 665 nm after excitation at 350 nm was measured in a TR-FRET reader, e.g. a Rubystar (BMG Labtechnologies, Offenburg, Germany) or a Viewlux (Perkin-Elmer). The ratio of the emissions at 665 nm and at 622 nm was taken as the measure for the amount of phosphorylated substrate.
# phospho-AKT at S473 = assay: Cellular p-AKT1/2/3-S473 assay in KPL-4 cells; type: cell-based; conditions: Homo sapiens, KPL4; KPL-4 breast tumour cell line, compound treatment 2 hours; read-out: pAKT-S473 median IC50
# Procedure: (§1) The molecular mechanism of action was investigated in a set of experiments to assess the inhibition of the PI3K-AKT-mTOR pathway in responsive cell lines such as KPL-4 breast tumour cell line (PIK3CA^H1047R, HER2^O/E and hormone independent). The phospho-substrates of PI3K-AKT-mTOR axis were used as the read-outs to reflect pathway inhibition. Cells were seeded at 60-80% confluency per well in 96-well cell culture plates. After overnight incubation at 37° C. 5% CO2, cells were treated with compounds and vehicle at 37° C. for 2 hours. […] All measurements where at least done in duplicates and confirmed by independent repetition.
# Alternatively pAKT-S473 was measured using the “Akt Duplex” of the MULTI-SPOT® Assay System (Fa. Meso Scale Discovery, Cat#N41100B-1) following manufacturers instructions. Each assay used 20 μg of protein extract and measured total AKT and p-AKT content simultaneously in one well. All measurements where at least done in duplicates and confirmed by independent repetition. Values for P-AKT are expressed as percentage of P-AKT level compared to total-AKT content of the extracts.
# p-4E-BP1 at T70 = assay: Cellular p-4E-BP1-T70 assay in KPL-4 cells; type: cell-based; conditions: Homo sapiens, KPL4; KPL-4 breast tumour cell line, compound treatment 2 hours; read-out: P4EBP1-T70 median IC50
# Procedure: as §1
# [3] = test system: KPL-4 breast cancer cell line; assay: Tumor cell proliferation assay (CellTiter-Glo), KPL-4; type: cell-based; conditions: Homo sapiens, KPL4, 72 h drug exposure, read-out: KLP-4 median IC50
# Procedure: Biological Assay 4.0: Tumor Cell Proliferation Assays
# Compounds were tested in a cell-based assay that measures the capacity of the compounds to inhibit tumour cell proliferation following a 72 h drug exposure. Cell viability is determined using CellTiter-Glow® (CTG, Promega, cat#G7571/2/3). The CellTiter-Glo® Luminescent Cell Viability Assay is a homogeneous method to determine the number of viable cells in culture.
# Detection is based on using the luciferase reaction to measure the amount of ATP from viable cells. The amount of ATP in cells correlates with cell viability. Within minutes after a loss of membrane integrity, cells lose the ability to synthesize ATP, and endogenous ATPases destroy any remaining ATP; thus the levels of ATP fall precipitously.
# For each cell line assayed, cells were plated onto a separate plate for determination of fluorescence at t=0 hour and t=72 hour time points. Following overnight incubation at 37° C., chemiluminescence values for the t=0 samples were determined after adding 10 μl medium and 100 μl CTG solution according to manufacture protocol. Plates for the t=72 hour time points were treated with compounds diluted into growth medium at ten times final concentration added in 10 μL to the cell culture plate. Cells were then incubated for 72 hours at 37° C. Chemiluminescence values for the t=72 hour samples were determined. […] Experiments were controlled using a reference compound as standard.
# [4] = test system: MCF-7 breast tumour cell line; assay: Tumor cell proliferation assay (CellTiter-Glo), MCF-7; type: cell-based; conditions: Homo sapiens, MCF7, 72 h drug exposure, read-out: MCF-7 median IC50
# Chain of His-tagged human recombinant kinase full-length Akt2 (P31751 whole entry): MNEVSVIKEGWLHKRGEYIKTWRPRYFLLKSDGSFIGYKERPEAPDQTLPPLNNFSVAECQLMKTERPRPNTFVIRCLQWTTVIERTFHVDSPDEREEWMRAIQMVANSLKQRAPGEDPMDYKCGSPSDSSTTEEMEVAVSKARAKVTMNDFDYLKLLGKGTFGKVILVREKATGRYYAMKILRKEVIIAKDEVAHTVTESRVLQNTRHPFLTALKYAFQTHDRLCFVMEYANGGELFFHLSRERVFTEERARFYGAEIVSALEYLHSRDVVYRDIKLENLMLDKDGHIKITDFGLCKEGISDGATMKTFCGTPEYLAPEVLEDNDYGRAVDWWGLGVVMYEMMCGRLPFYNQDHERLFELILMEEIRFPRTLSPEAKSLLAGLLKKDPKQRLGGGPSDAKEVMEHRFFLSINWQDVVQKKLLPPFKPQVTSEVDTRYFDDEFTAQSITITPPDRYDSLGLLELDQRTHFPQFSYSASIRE
# Chain of His-tagged human recombinant kinase full-length Akt1 (P31749 whole entry): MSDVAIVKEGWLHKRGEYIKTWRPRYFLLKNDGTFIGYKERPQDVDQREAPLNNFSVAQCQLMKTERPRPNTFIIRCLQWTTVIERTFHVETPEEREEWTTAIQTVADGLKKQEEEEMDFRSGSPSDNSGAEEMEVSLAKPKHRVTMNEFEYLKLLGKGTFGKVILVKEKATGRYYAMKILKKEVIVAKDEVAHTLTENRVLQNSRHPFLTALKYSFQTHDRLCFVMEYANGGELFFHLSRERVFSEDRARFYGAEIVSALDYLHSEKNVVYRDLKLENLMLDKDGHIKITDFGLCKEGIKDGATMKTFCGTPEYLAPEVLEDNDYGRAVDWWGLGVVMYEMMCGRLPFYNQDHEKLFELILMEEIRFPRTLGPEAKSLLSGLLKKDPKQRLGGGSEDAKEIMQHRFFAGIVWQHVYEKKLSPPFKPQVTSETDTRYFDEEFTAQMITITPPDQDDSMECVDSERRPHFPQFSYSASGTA
Compound,IC50 [1] [nM],IC50 [2] [nM],IC50 (phospho-AKT at S473) [nM],IC50 (p-4E-BP1 at T70) [nM],IC50 [3] [nM],IC50 [4] [nM]
"NC1(c2ccc(-c3nc4ccc(Cl)nn4c3-c3ccccc3)cc2)CCC1 [Example 17, 1-[4-(6-Chloro-3-phenylimidazo[1,2-b]pyridazin-2-yl)phenyl]cyclobutanamine]",43,92,12,430,,
"CCOc1cc(Cl)nn2c(-c3ccccc3)c(-c3ccc(C4(N)CCC4)cc3)nc12 [Example 30, 1-[4-(6-Chloro-8-ethoxy-3-phenylimidazo[1,2-b]pyridazin-2-yl)phenyl]cyclobutanamine]",51,58,400,2500,6000,2600
"NC1(c2ccc(-c3nc4ccc(Br)nn4c3-c3ccccc3)cc2)CCC1 [Example 41, 1-[4-(6-Bromo-3-phenylimidazo[1,2-b]pyridazin-2-yl)phenyl]cyclobutanamine]",33,66,> 10000,> 10000,> 10000,> 10000
"CC(=O)Nc1ccnn2c(-c3ccccc3)c(-c3ccc(C4(N)CCC4)cc3)nc12 [Example 49, N-{2-[4-(1-Aminocyclobutyl)phenyl]-3-phenylimidazo[1,2-b]pyridazin-8-yl}acetamide]",68,120,8,41,140,610
"COc1cc(-c2cccnc2)c2nc(-c3ccc(C4(N)CCC4)cc3)c(-c3ccccc3)n2n1 [Example 14, 1-{4-[6-Methoxy-3-phenyl-8-(pyridin-3-yl)imidazo [1,2-b]pyridazin-2-yl]phenyl}cyclobutanamine]",9.8,65,220,320,1900,1800
"COc1cc(-c2ccncc2)c2nc(-c3ccc(C4(N)CCC4)cc3)c(-c3ccccc3)n2n1 [Example 75, 1-{4-[6-Methoxy-3-phenyl-8-(pyridin-4-yl)imidazo[1,2-b]pyridazin-2-yl]phenyl}cyclobutanamine]",21,100,230,1500,1800,1800
"COc1ccnn2c(-c3ccccc3)c(-c3ccc(C4(N)CCC4)cc3)nc12 [Example 11, 1-[4-(8-Methoxy-3-phenylimidazo[1,2-b]pyridazin-2-yl)phenyl]cyclobutanamine]",130,110,14,160,630,470
"COC(=O)CCc1ccnn2c(-c3ccccc3)c(-c3ccc(C4(N)CCC4)cc3)nc12 [Example 72, Methyl 3-{2-[4-(1-aminocyclobutyl)phenyl]-3-phenylimidazo[1,2-b]pyridazin-8-yl}propanoate]",310,580,1000,590,2200,3000
"Cn1nccc1-c1cc(Cl)nn2c(-c3ccccc3)c(-c3ccc(C4(N)CCC4)cc3)nc12 [Example 23, 1-{4-[6-Chloro-8-(1-methyl-1H-pyrazol-5-yl)-3-phenylimidazo[1,2-b]pyridazin-2-yl]phenyl} cyclobutanamine]",1200,190,1400,2900,2200,2100
"NC1(c2ccc(-c3nc4cccnn4c3-c3ccccc3)cc2)CCC1 [Example 25, 1-[4-(3-Phenylimidazo[1,2-b]pyridazin-2-yl)phenyl]cyclobutanamine]",190,160,90,550,2000,1900
"CS(=O)(=O)Nc1ccc2nc(-c3ccc(C4(N)CCC4)cc3)c(-c3ccccc3)n2n1 [Example 45, N-{2-[4-(1-Aminocyclobutyl)phenyl]-3-phenylimidazo[1,2-b]pyridazin-6-yl} methanesulfonamide]",1200,6600,> 10000,> 10000,> 10000,> 10000
"COc1cc(OC)c2nc(-c3ccc(C4(N)CCC4)cc3)c(-c3ccccc3)n2n1 [Example 9, 1-[4-(6,8-Dimethyloxy-3-phenylimidazo[1,2-b]pyridazin-2-yl)phenyl]-cyclobutanamine]",3.9,18,36,690,770,340
"COC(=O)c1nn2c(-c3ccccc3)c(-c3ccc(C4(N)CCC4)cc3)nc2c(C)c1C [Example 51, Methyl 2-[4-(1-aminocyclobutyl)phenyl]-7,8-dimethyl-3-phenylimidazo[1,2-b]pyridazine-6-carboxylate]",42,81,590,1200,7000,1400
"CCOc1ccc2nc(-c3ccc(C4(N)CCC4)cc3)c(-c3ccccc3)n2n1 [Example 78, 1-[4-(6-Ethoxy-3-phenylimidazo[1,2-b]pyridazin-2-yl)phenyl]cyclobutanamine]",32,230,92,580,,
"C=Cc1cc(OC)c2nc(-c3ccc(C4(N)CCC4)cc3)c(-c3ccccc3)n2n1 [Example 18, 1-[4-(8-Methoxy-3-phenyl-6-vinylimidazo[1,2-b]pyridazin-2-yl)phenyl]-cyclobutanamine]",86,53,180,710,1600,1100
"Cc1ccc2nc(-c3ccc(C4(N)CCC4)cc3)c(-c3ccccc3)n2n1 [Example 1, 1-[4-(6-Methyl-3-phenylimidazo[1,2-b]pyridazin-2-yl)phenyl]cyclobutanamine]",170,380,160,,1800,600
"Nc1ccnn2c(-c3ccccc3)c(-c3ccc(C4(N)CCC4)cc3)nc12 [Example 48, 2-[4-(1-Aminocyclobutyl)phenyl]-3-phenylimidazo[1,2-b]pyridazin-8-amine]",,610,42,29,1100,1300

# Further lines, results first:
IC50 [1] [nM],IC50 [2] [nM],IC50 (phospho-AKT at S473) [nM],IC50 (p-4E-BP1 at T70) [nM],IC50 [3] [nM],IC50 [4] [nM],Compound
11,20,92,10000,2000,780,"NC1(c2ccc(-c3nc4c(-c5cc[nH]n5)cc(C(=O)NCCO)nn4c3-c3ccccc3)cc2)CCC1 [Example 71, 2-[4-(1-Aminocyclobutyl)phenyl]-N-(2-hydroxyethyl)-3-phenyl-8-(1H-pyrazol-3-yl)imidazo[1,2-b]pyridazine-6-carboxamide]"
46,120,3.8,0.3,1600,760,"CNC(=O)c1ccnn2c(-c3ccccc3)c(-c3ccc(C4(N)CCC4)cc3)nc12 [Example 63, 2-[4-(1-Aminocyclobutyl)phenyl]-N-methyl-3-phenylimidazo[1,2-b]pyridazine-8-carboxamide]"
58,96,> 10000,> 10000,,,"NC1(c2ccc(-c3nc4c(-c5cc[nH]n5)cc(C(=O)O)nn4c3-c3ccccc3)cc2)CCC1 [Example 67, 2-[4-(1-Aminocyclobutyl)phenyl]-3-phenyl-8-(1H-pyrazol-3-yl)imidazo[1,2-b]-pyridazine-6-carboxylic acid]"
3.1,2.6,1.4,22,470,280,"CNC(=O)c1cc(-c2cc[nH]n2)c2nc(-c3ccc(C4(N)CCC4)cc3)c(-c3ccccc3)n2n1 [Example 65, 2-[4-(1-Aminocyclobutyl)phenyl]-N-methyl-3-phenyl-8-(1H-pyrazol-3-yl)imidazo[1,2-b]pyridazine-6-carboxamide]"
110,280,1000,10000,> 10000,> 10000,"COC(=O)c1cc(-c2ncc[nH]2)c2nc(-c3ccc(C4(N)CCC4)cc3)c(-c3ccccc3)n2n1 [Example 58, Methyl 2-[4-(1-aminocyclobutyl)phenyl]-8-(1H-imidazol-2-yl)-3-phenylimidazo[1,2-b]pyridazine-6-carboxylate]"
21,66,3.7,5300,1500,680,"CNC(=O)c1ccc2nc(-c3ccc(C4(N)CCC4)cc3)c(-c3ccccc3)n2n1 [Example 68, 2-[4-(1-Aminocyclobutyl)phenyl]-N-methyl-3-phenylimidazo[1,2-b]-pyridazine-6-carboxamide]"
4.1,3.7,0.5,2,33,56,"CCOc1cc(C(N)=O)nn2c(-c3ccccc3)c(-c3ccc(C4(N)CCC4)cc3)nc12 [Example 61, 2-[4-(1-Aminocyclobutyl)phenyl]-8-ethoxy-3-phenylimidazo[1,2-b]pyridazine-6-carboxamide]"
16,62,0.4,35,,,"CNC(=O)c1cc(-c2ncc[nH]2)c2nc(-c3ccc(C4(N)CCC4)cc3)c(-c3ccccc3)n2n1 [Example 62, 2-[4-(1-Aminocyclobutyl)phenyl]-8-(1H-imidazol-2-yl)-N-methyl-3-phenylimidazo[1,2-b]pyridazine-6-carboxamide]"
